Measured values published in patent publication US11491117B2, “Compounds for the prevention and treatment of glucose intolerance related conditions and obesity” (SORBONNE UNIVERSITÉ, priority 2017, dated 2022).

Tested on: C57BL/6J mice fed control chow diet (CHD) or high fat diet (HFD)
Assay: Chronic subcutaneous infusion in mice fed control chow or high fat diet: body growth, glucose homeostasis (IPGTT), insulin secretion, organ weight, liver triglycerides
Assay type: in vivo, mouse
Method: Six weeks-old C57BL/6J male mice (Janvier Labs, Courtaboeuf, France) were received and acclimated in specific pathogen free (SPF) maintenance condition. Mice had free access to a standard chow diet (R04-40, Safe, Augy, France) and were kept on 12 h light/dark cycle. After one week, a group of 12 mice was fed control carbohydrate diet (CHD) (D 12450Ki, Research diets, NJ) and a group of 12 mice was fed high fat (60% fat and sucrose) diet (HFD) (D12492i, Research diets, NJ).
After three weeks of metabolite treatment (i.e. four weeks of HFD feeding) an intra-peritoneal glucose tolerance test (IPGTT) (2 g/kg) was performed in conscious mice following an overnight fast. Blood was collected from the tail vein before glucose injection and 15, 30, 60 and 120 minutes afterwards. Additional blood samples were collected during the IPGTT in GK rats 15, 90, 180 and 240 minutes after glucose injection. Blood glucose levels were determined using an Accu-Check® Performa (Roche Diagnostics, Meylan, France). Additional blood samples were collected at base line and 30 minutes after glucose injection in Microvette® CB 300 Lithium Heparin (Sarstedt, Marnay, France). Plasma was separated by centrifugation and stored at −80° C. until insulin radioimmunoassay. Evaluation of overall glucose tolerance was obtained from cumulative glycemia (GCum) and the ΔG, which were determined by the total increment of plasma glucose values during the IPGTT (GCum) and the cumulative glycemia during the test above baseline (ΔG). After six weeks of metabolite treatment, mice were killed by decapitation and organ were dissected and weighed. Half of liver, fat and pancreas samples were snap frozen in liquid nitrogen and stored at −80° C. for molecular studies, and the second half processed for histopathology. All procedures were authorized following review by the institutional ethic committee and carried out under national license condition (Ref 00486.02).
Blood glucose was measured using an Accu-Check® Performa (Roche Diagnostics, Meylan, France) and plasma insulin was determined using Insulin ELISA kits (Mercodia, Uppsala, Sweden). For determination of liver triglycerides, liver samples (100 mg) were homogenized and incubated in NonidetP-40 (5%) and supernatants containing triglycerides were collected. Triglycerides concentration was quantified in the supernatant fraction using a colorimetric assay (ab65336, Abcam, Paris, France) by measuring OD at 570 nm. The ratio NAD/NADH was determined using a quantification kit (MAK037; SigmaAldrich, St Quentin, France) on extracts prepared from 20 mg pancreas tissue. Samples were homogenized in the extraction buffer and clarified by centrifugation. Supernatant was deproteinized by filtration through a 10-kDa cutoff spin filter (Millipore SAS, Molsheim, France). The assay was then performed according to the manufacturer's instructions.
As expected, mice fed HFD rapidly gained more weight than mice fed control diet and developed fasting hyperglycemia and marked glucose intolerance (FIG. 1A-1F).

## Cc1ccc(O)c(O)c1 [4-MC, 4-methylcatechol]
Both diet groups (CHD, HFD), 6 weeks, vs saline
  adiposity index (retroperitoneal fat pads to body weight): significant reduction
Both diet groups, vs saline
  liver triglycerides content: significant reduction
Both diets, IPGTT, vs saline
  cumulative glycemia: reduced
  glucose tolerance: improved glucose tolerance
  ΔG: reduced
Both diets, vs saline
  fasting glycemia: reduced
  insulin secretion: increased insulin secretion
Mice fed HFD or control diet
  liver weight: significant reduction
  pancreas weight: increased pancreas weight
Mice fed chow diet or HFD, chronic treatment, vs saline
  body growth: strong reduction
Mice fed chow diet or HFD, vs saline
  BMI: strong reduction
